Data on seven molecules can be found in patent publication US20110171279A1, “POLYETHYLENIMINE BIOCIDES” (NDSU RESEARCH FOUNDATION, priority 2009, published 2011).

Like-named read-outs stand apart in the source and are kept apart here. Some results are limits rather than exact numbers.

Holding throughout (assay type): cell-based
In assay [1] the test system is Staphylococcus epidermidis. The experiment in a line: Growth reduction / MIC test against Staphylococcus epidermidis in tryptic soy broth, absorbance 600 nm. The note with it: for Percent reduction in growth of Staphylococcus epidermidis: Table 9; for MIC: Staphylococcus epidermidis, read-out: S. epidermidis MIC. On the procedure: (§1) The antimicrobial properties of the Formulations were determined by measuring the minimum inhibitory concentration (MIC) or by using an adaptation of the MIC test. […] Additional details of the MIC method can be found at Andrews, J. M., Journal of Antimicrobial Chemotherapy (2001) 48, 5-16, incorporated herein by reference in its entirety.
In accordance with the MIC test, working solutions for each Formulation were prepared by dissolving 100 mg of each Formulation in 10 mL of methanol (Sigma-Aldrich) to generate a 10 mg/mL solution. Next, 10 ml of tryptic soy broth was spiked with 200 μL of the mg/mL Formulation solution to achieve a final concentration of 0.2 mg/mL.
(§2) 0.2 mL of each concentration of each Formulation (spiked with S. epidermidis) was added in triplicate to a 96-well plate. Additionally, 0.2 mL of tryptic soy broth without any S. epidermidis or Formulation and 0.2 mL of tryptic soy broth with S. epidermidis, but no Formulations, served as negative and positive growth controls, respectively. Plates were then placed in an incubator, at 37° C. for 24 hrs (with shaking), and then measured for growth by taking absorbance measurements at 600 nm with a multi-well plate spectrophotometer (Synergy HT microplate reader, BioTek Instruments, Winooski, Vt.). The efficacy of each Formulation was measured by determining the percent reduction in bacterial growth as a function of Formulation concentration.
For comparison purposes a benzylpiperidino biocide (“Reference 1”) was prepared using ETCS and synthetic methods similar to those described in U.S. Pat. No. 5,036,077, issued Jul. 30, 1991, and incorporated by reference in its entirety. To make Reference 1, 3.9 g of ETCS and 2 g of 4-benzylpiperidine were reacted in 30 mL of methanol. The mixture was heated at 65° C. for 48 hours. Reaction completion was confirmed by ^1H NMR, ^13C NMR, HMQC (2D) NMR and elemental analysis. The antimicrobial activity of Formulations 69-77 and Reference 1 toward S. epidermidis was measured by determining the percent reduction in bacterial growth as a function of concentration, as was done above in EXAMPLE 3.

In another assay the test system is Escherichia coli. The experiment in a line: Growth reduction / MIC test against Escherichia coli in Luria-Bertani broth, absorbance 600 nm. The conditions noted are these: for Percent reduction in growth of Escherichia coli: Table 10; for MIC: Escherichia coli, read-out: E. Coli MIC. On the procedure: as §1
In accordance with the MIC test, working solutions for each Formulation were prepared by dissolving 100 mg of each Formulation in 10 mL of methanol (Sigma-Aldrich) to generate a 10 mg/mL solution. Next, 10 ml of Luria-Bertani broth was spiked with 200 μL of the mg/mL Formulation solution to achieve a final concentration of 0.2 mg/mL.
as §2, with “E. coli)” for “S. epidermidis)”, “Luria-Bertani” for “tryptic soy”, “E. coli” for “S. epidermidis”, “E. coli,” for “S. epidermidis,”, “HT).” for “HT microplate reader, BioTek Instruments, Winooski, Vt.).”
Next, the antimicrobial activity of Formulations 69-77 and Reference 1 toward E. coli was measured by determining the percent reduction in bacterial growth as a function of concentration. The results for the examples were compared to various PEIs used to produce the examples.

For the next assay, the system named is Candida albicans. The experiment in a line: Antifungal activity, percent reduction in fungal growth of Candida albicans. The note with it: Table 11. The protocol: Additionally, the antifungal activity of Formulations 69-77 and Reference 1 toward Candida albicans was measured by determining the percent reduction in fungal growth as a function of concentration.

Assay [2] concerns Navicula incerta. The assay is described as follows: Growth reduction / MIC test against Navicula incerta in Guillard's F/2 medium, chlorophyll fluorescence. On the procedure:
as §1
(§3) In accordance with the MIC test, working solutions for each Formulation were prepared by dissolving 100 mg of each Formulation in 10 mL of methanol (Sigma-Aldrich) to generate a 10 mg/mL solution. Next, 10 ml of Guillard's F/2 medium was spiked with 200 μL of the 10 mg/mL Formulation solution to achieve a final concentration of 0.2 mg/mL.
(§4) 0.2 mL of each concentration of each Formulation (spiked with N. incerta) was added in triplicate to a 96-well plate. Additionally, 0.2 mL of Guillard's F/2 medium without any N. incerta or Formulation and 0.2 mL of Guillard's F/2 medium with N. incerta, but no Formulations, served as negative and positive growth controls, respectively. The 96-well plates were placed in an illuminated growth cabinet with a 16:8 light:dark cycle (photon flux density 33 μmol m^−2 s^−1) for 48 hrs at 18° C. and measured for chlorophyll fluorescence using a multi-well plate spectrophotometer (excitation: 360 nm; emission: 670 nm). The efficacy of each Formulation was measured by determining the percent reduction in diatom growth as a function of Formulation concentration.

A further assay has as its system Cellulophaga lytica. The assay is described as follows: Growth reduction / MIC test against Cellulophaga lytica. The note with it: for MIC: Cellulophaga lytica. The protocol:
as §1, §3
as §4, with “C. lytica)” for “N. incerta)”, “C. lytica” for “N. incerta”, “C. lytica,” for “N. incerta,”
(§5) The antimicrobial activity of Formulations 10-12, also derived from ETCS and PEI, was determined toward a suite of marine microorganisms, namely, Pseudoalteromonas atlantica, Cellulophaga lytica, Cobetia marina, and Halomonas pacifica. The antimicrobial activity of Formulations 10-12 was determined toward these marine microorganisms according to the methods of EXAMPLES 5-7. The MIC for each Formulation against each strain is compared to that of the PEI, ETCS, and TCS (alone) in Table 7.

The test system of another assay is Halomonas pacifica. The assay is described as follows: Growth reduction / MIC test against Halomonas pacifica. The conditions noted are these: for MIC: Bisbaumannia pacifica. The protocol: as §1, §3
0.2 mL of each H. pacifica concentration was added in triplicate to a 96-well plate. Additionally, 0.2 mL of Guillard's F/2 medium without any H. pacifica or Formulation and 0.2 mL of Guillard's F/2 medium with H. pacifica, but no Formulations, served as negative and positive growth controls, respectively. The 96-well plates were placed in an illuminated growth cabinet with a 16:8 light:dark cycle (photon flux density 33 μmol m^−2 s^−1) for 48 hrs at 18° C. and measured for chlorophyll fluorescence using a multi-well plate spectrophotometer (excitation: 360 nm; emission: 670 nm). The efficacy of each Formulation was measured by determining the percent reduction in diatom growth as a function of Formulation concentration.
as §5

Assay [3] has as its system Navicula incerta. The assay is described as follows: Growth reduction / MIC test against Navicula incerta in Guillard's F/2 medium, chlorophyll fluorescence. The note with it: Table 12; read-out: N. incerta MIC.
[4] abbreviates: Formulation Concentration 0.78125 μg/mL.
[5] abbreviates: Formulation Concentration 1.5625 μg/mL.
[6] abbreviates: Formulation Concentration 3.125 μg/mL.
Setting [7] is: Formulation Concentration 6.25 μg/mL.
Setting [8] is: Formulation Concentration 12.5 μg/mL.
Where [9] appears, read: Formulation Concentration 25 μg/mL.
Setting [10] is: Formulation Concentration 50 μg/mL.
Setting [11] is: Formulation Concentration 100 μg/mL.
Where [12] appears, read: Table 12, read-out: C. lytica MIC.
Where [13] appears, read: Table 12, read-out: H. pacifica MIC.

For the molecule `Clc1cc(Cl)c(OCC2CO2)c(Cl)c1` (stereo not drawn) [EDCP, 2-((2,4,6-trichlorophenoxy)methyl)oxirane], the “Percent reduction in growth of Staphylococcus epidermidis” value is on record as 7.58% in assay [1] (setting [4]); 6.34% in assay [1] (setting [5]); 5.04% in assay [1] (setting [6]); 8.44% in assay [1] (setting [7]); 6.20% in assay [1] (setting [8]); 8.90% in assay [1] (setting [9]). Moreover, the “Percent reduction in growth of Staphylococcus epidermidis” value in assay [1] (setting [10]) is listed as 5.00%; in assay [1] (setting [11]), 0.00%. The “Percent reduction in growth of Escherichia coli” value in the assay on Escherichia coli (setting [4]) came to 14.85%; in the assay on Escherichia coli (setting [5]), 1.60%; in the assay on Escherichia coli (setting [6]), 0.00%; in the assay with Escherichia coli (setting [7]), 55.43%; in the assay with Escherichia coli (setting [8]), 52.95%; in the assay with Escherichia coli (setting [9]) it was 61.26%. For the same molecule, the figures for the “Percent reduction in growth of Escherichia coli” value in the assay with Escherichia coli (setting [10]) and in the assay on Escherichia coli (setting [11]) were 1.38% and 91.65%, respectively. Further, the “Percent reduction in growth of Candida albicans” value in the assay on Candida albicans (setting [4]) is on record as 11.66%; with Candida albicans (setting [5]), 15.25%; in the assay with Candida albicans (setting [6]), 0.00%; in the assay with Candida albicans (setting [7]), 1.45%; with Candida albicans (setting [8]), 0.00%; in the assay on Candida albicans (setting [9]), 0.00%. The “Percent reduction in growth of Candida albicans” value in the assay on Candida albicans (setting [10]) was 21.55%; in the assay with Candida albicans (setting [11]), 25.83%.
In the case of `CNc1ccccc1` [N-methyl aniline, N-methylaniline], the MIC in assay [1] was above 100 µg/mL; in the assay on Escherichia coli, above 100 µg/mL; in the assay with Navicula incerta [2] (read-out: N. incerta MIC) it was above 100 µg/mL; in the assay on Cellulophaga lytica (read-out: C. lytica MIC, Table 12) it was above 100 µg/mL; in the assay with Halomonas pacifica (read-out: H. pacifica MIC, Table 12), above 100 µg/mL.
Turning to `C=CCN` [allyl amine], the MIC (in assay [1] (Table 12); with Escherichia coli (Table 12); in the assay with Cellulophaga lytica (setting [12]); with Halomonas pacifica (setting [13]); in the assay with Navicula incerta [3]) was above 100 µg/mL each time.
On to `COCCNCCOC` [bis(methoxyethyl), bis(2-methoxyethyl)amine], for which the MIC (in assay [1] (Table 12); with Escherichia coli (Table 12); in the assay on Cellulophaga lytica (setting [12]); in the assay with Halomonas pacifica (setting [13]); with Navicula incerta [3]) was above 100 µg/mL in each case.
Take `OCCNCCO` [diethanolamine]: the MIC (in assay [1] (Table 12); with Escherichia coli (Table 12); in the assay with Cellulophaga lytica (setting [12]); in the assay with Halomonas pacifica (setting [13]); with Navicula incerta [3]) was above 100 µg/mL throughout.
For `CC(O)CNCC(C)O` (stereo not drawn) [diisopropanolamine], the “S. epidermidis MIC” value in assay [1] (Table 12) was above 100 µg/mL. Further, the “E. Coli MIC” value in the assay with Escherichia coli (Table 12) was above 100 µg/mL. The “N. incerta MIC” value in the assay on Navicula incerta [2] (Table 12) is above 100 µg/mL. Further, the “C. lytica MIC” value with Cellulophaga lytica (Table 12) is above 100 µg/mL. Further, the “H. pacifica MIC” value in the assay on Halomonas pacifica (Table 12) is above 100 µg/mL.
`NCCN` [ethylenediamine]: the MIC (in assay [1] (Table 12); in the assay with Escherichia coli (Table 12); in the assay with Cellulophaga lytica (setting [12]); in the assay on Halomonas pacifica (setting [13]); in the assay on Navicula incerta [3]) was above 100 µg/mL throughout.
